Tests used:
[1] = tested on: IL-13 production by chondrocytes (C-28/I2); experiment: cytokine array of conditioned media from IL1β-stimulated chondrocytes: IL-13; format: cell-based, human; details: Moderate level (2.00 μM) of CBD alone, IL1β 10 ng/ml, 24 hours, no serum, FIG. 2
From the text: Antimicrobials were not added to the media.
Three wells were utilized per sample condition.

C-28/I2 chondrocytes = experiment: toxicity screen to establish maximum tolerable concentrations in chondrocytes
From the text: A clonal derivative of ATCC-certified normal chondrocytes was used for a study to determine cytokine expression. The parent line was originally derived from costal cartilage of an adolescent person. The cell line used is C-28/I2 accession number CVCL_0187. The cells were immortalized via retroviral vector-mediated SV40 Large T antigen expression. Cells were confirmed negative for mycoplasma contamination and genotyped by STR analysis to verify cell identity. This cell line is widely used as a model for studying normal and pathological cartilage repair mechanisms and inflammation.
The cells were cultured at 37° C. with 5% CO2, DMEM/F12 media supplemented with 10% heat-inactivated fetal bovine serum. Antimicrobials were not added to the media. Cells were maintained between 40 and 80% confluency to avoid terminal differentiation. Cells used for the experiments had been passaged no more than ten times prior to each experiment.
A series of pilot studies were performed to design the final full-scale experiment. First, a toxicity screen for each test compound was performed to establish maximum tolerable concentrations in this model system. Second, assays were run to establish the optimal means of inducing a pro-inflammatory state in the cell culture system. Third, conditions were tested to set the most favorable dilution scheme in order to maintain samples within the linear range of detection for each analyte. To establish the test concentrations for each test compound, chondrocytes were treated with a serial dilution of each compound, for 24 and 48 hours under serum free conditions. Oleocanthal or CBD were tested at two-fold dilutions down from a concentration of 50 micromolar (μM).

`C=C(C)[C@@H]1CCC(C)=C[C@H]1c1c(O)cc(CCCCC)cc1O` [CBD, cannabidiol] was tested, and the “generated amount of IL13” value [1] was “greatly reduced” and the maximum tolerable concentration (C-28/I2 chondrocytes; chondrocytes, 24 hours post-treatment, serum free) was 6 µM.
For `O=C(O)c1cccnc1` [niacin, niacin/nicotinic acid], the maximum tolerable concentration (C-28/I2 chondrocytes; human, 24 h) was 1000 µM.
In the case of `C/C=C(/C=O)[C@@H](CC=O)CC(=O)OCCc1ccc(O)cc1` [oleocanthal], the maximum tolerable concentration (C-28/I2 chondrocytes; human, 24 h) is reported as 6 µM.

Source: patent US12576094B2, “Combination cannabinoid-phenylethanoid formulation for treatment of inflammation and methods related thereto” (Canole LLC, priority 2019, dated 2026)
